Test results published in ChEMBL document CHEMBL1201862, “PubChem BioAssay data set” (2004).
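Cultured in 96-well plates, cells were exposed to test compound for 48 hours across five concentrations. GI50 = concentration required for 50% inhibition of growth.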 Activity calls are given as the source filed them. Rule as the data show it: active = GI50 up to about 1.1 µM and inactive = higher.

Experiments:
Assay in all cases: DTP human tumour cell line panel, 48 h
Hs-578T = test system: Hs-578T
PC-3 = test system: PC-3
SNB-75 = test system: SNB-75
SW-620 = test system: SW-620
TK-10 = test system: TK-10
MDA-MB-435 = test system: MDA-MB-435
NCI/ADR-RES = test system: NCI/ADR-RES
HCC 2998 = test system: HCC 2998
HOP-62 = test system: HOP-62
RXF 393 = test system: RXF 393
OVCAR-8 = test system: OVCAR-8
LOX IMVI = test system: LOX IMVI
HCT-15 = test system: HCT-15
K562 = test system: K562
NCI-H460 = test system: NCI-H460
BT-549 = test system: BT-549
SF-268 = test system: SF-268
SF-295 = test system: SF-295
SNB-19 = test system: SNB-19
SF-539 = test system: SF-539
UACC-62 = test system: UACC-62
T47D = test system: T47D
CCRF-CEM = test system: CCRF-CEM
OVCAR-5 = test system: OVCAR-5
SK-OV-3 = test system: SK-OV-3
OVCAR-3 = test system: OVCAR-3
HOP-92 = test system: HOP-92
SK-MEL-5 = test system: SK-MEL-5
SK-MEL-28 = test system: SK-MEL-28
A549 = test system: A549
IGROV-1 = test system: IGROV-1
U-251 = test system: U-251
Malme-3M = test system: Malme-3M
ACHN = test system: ACHN
COLO 205 = test system: COLO 205
786-0 = test system: 786-0
M14 = test system: M14
EKVX = test system: EKVX
MOLT-4 = test system: MOLT-4
UACC-257 = test system: UACC-257
DU-145 = test system: DU-145
NCI-H226 = test system: NCI-H226
NCI-H23 = test system: NCI-H23
KM12 = test system: KM12
SN12C = test system: SN12C
HT-29 = test system: HT-29
NCI-H522 = test system: NCI-H522
OVCAR-4 = test system: OVCAR-4
CAKI-1 = test system: CAKI-1
HCT-116 = test system: HCT-116
MCF7 = test system: MCF7
MDA-N = test system: MDA-N
MDA-MB-231 = test system: MDA-MB-231
UO-31 = test system: UO-31
SK-MEL-2 = test system: SK-MEL-2
A498 = test system: A498
HL-60 = test system: HL-60
RPMI-8226 = test system: RPMI-8226
SR = test system: SR

COc1ccc2c(c1)CCCN1Cc3cc(OC)c(OC)cc3CC21 (stereo not drawn)
GI50 (Hs-578T): > 100 µM (inactive)
GI50 (PC-3): > 100 µM (inactive)
GI50 (SNB-75): 21.4 µM (inactive)
GI50 (SW-620): > 100 µM (inactive)
GI50 (TK-10): > 100 µM (inactive)
GI50 (MDA-MB-435): > 100 µM (inactive)
GI50 (NCI/ADR-RES): > 100 µM (inactive)
GI50 (HCC 2998): 15.8 µM (inactive)
GI50 (HOP-62): 60.4 µM (inactive)
GI50 (RXF 393): 25.6 µM (inactive)
GI50 (OVCAR-8): > 100 µM (inactive)
GI50 (LOX IMVI): 44.8 µM (inactive)
GI50 (HCT-15): > 100 µM
GI50 (K562): 80.7 µM (inactive)
GI50 (NCI-H460): 50.2 µM (inactive)
GI50 (BT-549): > 100 µM (inactive)
GI50 (SF-268): 50.9 µM (inactive)
GI50 (SF-295): > 100 µM (inactive)
GI50 (SNB-19): > 100 µM (inactive)
GI50 (SF-539): 81.8 µM (inactive)
GI50 (UACC-62): 86.3 µM (inactive)
GI50 (T47D): 20.2 µM (inactive)
GI50 (CCRF-CEM): 99.8 µM (inactive)
GI50 (OVCAR-5): > 100 µM (inactive)
GI50 (SK-OV-3): 66.2 µM (inactive)
GI50 (OVCAR-3): 82.2 µM (inactive)
GI50 (HOP-92): 15.9 µM (inactive)
GI50 (SK-MEL-5): 37.8 µM (inactive)
GI50 (SK-MEL-28): > 100 µM (inactive)
GI50 (A549): > 100 µM (inactive)
GI50 (IGROV-1): 22.1 µM (inactive)
GI50 (U-251): > 100 µM (inactive)
GI50 (Malme-3M): > 100 µM (inactive)
GI50 (ACHN): > 100 µM (inactive)
GI50 (COLO 205): 51.1 µM (inactive)
GI50 (786-0): 73.3 µM (inactive)
GI50 (M14): 18.9 µM (inactive)
GI50 (EKVX): > 100 µM (inactive)
GI50 (MOLT-4): > 100 µM (inactive)
GI50 (UACC-257): 56.1 µM (inactive)
GI50 (DU-145): > 100 µM (inactive)
GI50 (NCI-H226): > 100 µM (inactive)
GI50 (NCI-H23): > 100 µM (inactive)
GI50 (KM12): > 100 µM (inactive)
GI50 (SN12C): 89.1 µM (inactive)
GI50 (HT-29): 28.1 µM (inactive)
GI50 (NCI-H522): 75.5 µM (inactive)
GI50 (OVCAR-4): 43.7 µM (inactive)
GI50 (CAKI-1): > 100 µM (inactive)
GI50 (HCT-116): 18.2 µM (inactive)
GI50 (MCF7): > 100 µM (inactive)
GI50 (MDA-N): > 100 µM (inactive)
GI50 (MDA-MB-231): > 100 µM (inactive)
GI50 (UO-31): 48.8 µM (inactive)

Clc1ccc(/C=C/c2nc(-c3ccc(Cl)cc3)cn3c2nc2ccccc23)cc1
GI50 (Hs-578T): > 100 µM (inactive)
GI50 (PC-3): > 100 µM (inactive)
GI50 (SW-620): > 100 µM (inactive)
GI50 (TK-10): > 100 µM (inactive)
GI50 (MDA-MB-435): > 100 µM (inactive)
GI50 (NCI/ADR-RES): > 100 µM (inactive)
GI50 (HCC 2998): > 100 µM (inactive)
GI50 (HOP-62): > 100 µM (inactive)
GI50 (RXF 393): > 100 µM (inactive)
GI50 (LOX IMVI): > 100 µM (inactive)
GI50 (HCT-15): > 100 µM
GI50 (K562): > 100 µM (inactive)
GI50 (NCI-H460): > 100 µM (inactive)
GI50 (BT-549): > 100 µM (inactive)
GI50 (SK-MEL-2): > 100 µM (inactive)
GI50 (A498): > 100 µM (inactive)
GI50 (SF-268): > 100 µM (inactive)
GI50 (SNB-19): > 100 µM (inactive)
GI50 (SF-539): > 100 µM (inactive)
GI50 (UACC-62): > 100 µM (inactive)
GI50 (T47D): 88.7 µM (inactive)
GI50 (CCRF-CEM): > 100 µM (inactive)
GI50 (OVCAR-5): > 100 µM (inactive)
GI50 (HL-60): > 100 µM (inactive)
GI50 (RPMI-8226): > 100 µM (inactive)
GI50 (SK-OV-3): > 100 µM (inactive)
GI50 (OVCAR-3): > 100 µM (inactive)
GI50 (SR): > 100 µM (inactive)
GI50 (HOP-92): > 100 µM (inactive)
GI50 (SK-MEL-5): > 100 µM (inactive)
GI50 (SK-MEL-28): > 100 µM (inactive)
GI50 (A549): > 100 µM (inactive)
GI50 (IGROV-1): 55.7 µM (inactive)
GI50 (U-251): > 100 µM (inactive)
GI50 (Malme-3M): > 100 µM (inactive)
GI50 (ACHN): > 100 µM (inactive)
GI50 (COLO 205): > 100 µM (inactive)
GI50 (786-0): > 100 µM (inactive)
GI50 (M14): > 100 µM (inactive)
GI50 (EKVX): > 100 µM (inactive)
GI50 (MOLT-4): 45.1 µM (inactive)
GI50 (UACC-257): > 100 µM (inactive)
GI50 (DU-145): > 100 µM (inactive)
GI50 (NCI-H226): > 100 µM (inactive)
GI50 (NCI-H23): > 100 µM (inactive)
GI50 (KM12): > 100 µM (inactive)
GI50 (SN12C): > 100 µM (inactive)
GI50 (HT-29): > 100 µM (inactive)
GI50 (OVCAR-4): > 100 µM (inactive)
GI50 (HCT-116): > 100 µM (inactive)
GI50 (MCF7): 50.5 µM (inactive)
GI50 (MDA-N): > 100 µM (inactive)
GI50 (MDA-MB-231): > 100 µM (inactive)
GI50 (UO-31): > 100 µM (inactive)
